What is called melting point is the temperature, or range, at which the solid turns liquid.

The values that follow come from a melting point compilation (Tetko et al.; mined from patent text by program, amines drawn as free bases though some values may be those of a salt).

Some results are limits rather than exact numbers.

As for `N#Cc1ccccc1Oc1ccc(-c2cn(C3CCOC3)c3ncnc(N)c23)cc1` (stereo not given), the melting point was in the range of 201 to 203 °C.
`Cc1ccc(S(=O)(=O)NC(=O)C2C(=O)CC(C(C)C)CC2=O)cc1` (stereo not given): the melting point lay within 106 to 108 °C.
For `CCCCCCCCCCNC(=O)c1ccc([N+](=O)[O-])cc1`, the melting point fell in the range of 89 to 91 °C.
For `COCOc1cc(Cl)ccc1-c1cc(-c2cccc([N+](=O)[O-])c2)c(C#N)c(N)n1` the value was 196 to 198 °C; for `CCOC(=O)CCCOc1cccc(-c2n[nH]c3c2Cc2ccccc2-3)c1`, 142 to 148 °C; for `COc1cccc(CC2CCN(C(=O)C(=O)Nc3ccc4[nH]c(=O)oc4c3)CC2)c1`, 110 to 115 °C.
For `COc1cc(-c2ccc(Cl)cc2)ccc1COCCc1cccc(NS(=O)(=O)C(F)(F)F)c1` the value was 66 to 68 °C.
Turning to `CCc1noc(CC(=O)c2ccccc2)c1C(=O)NC`, the melting point is 134 to 136 °C.
Molecule `COc1cc2cc(CC(C)C)sc2c(Cl)c1Cl` registered a melting point of 40 to 41 °C.
For `CNC(=O)c1ncc2[nH]c3cccc(Oc4ccc(Cl)cc4)c3c2c1COC` the value was 236 °C.
Regarding `OC(CC(Br)=CBr)(CC(Br)=CBr)Cn1cncn1` (stereo not given), the melting point stood at 100 °C.
`O=C(c1ccccc1O)N1CC2CCC(C1)O2`: the melting point lay in the range of 155 to 157 °C.
As for `N=C(Nc1ccccc1C(F)(F)F)NC12CC3CC(CC(C3)C1)C2`, the figure is 259 to 260 °C; as for `CC(O)Cc1cc2c(cc1C(=NNc1ncccn1)c1ccc([N+](=O)[O-])cc1)OCO2` (stereo not given), 125 to 127 °C; as for `CCOC(=O)c1cnc(CCOC)nc1NCc1ccc(-c2ccccc2-c2nnnn2C(c2ccccc2)(c2ccccc2)c2ccccc2)cc1`, 128 to 130 °C.
The molecule `COC1=C(OC)C(=O)C2=C(CC(CCCCOc3ccc(C(=O)N4CCOCC4)cc3)C2)C1=O` gave a melting point of 128 to 131 °C.
`COC(=O)c1ccc2cc(Cl)ccc2c1` gave a melting point of 97 to 98 °C.
For `O=C(NCCN1CCCCC1)c1ccc(-c2ccc3nnn(Cc4ccc5ncccc5c4)c3n2)cc1` the value was 104 to 107 °C.
Turning to `O=C(Nc1cccc2c1C(=O)c1c-2n[nH]c1-c1ccc(C(=O)NN2CCCC2)s1)NN1CCOCC1`, the melting point lay within 213 to 215 °C.
Take `CCCCCCCCCCCCCCCCCCOc1cc(OCCCOc2ccc(S(C)=O)cc2)cc(C(=O)O)c1` (stereo not given): the melting point was in the range of 77 to 80 °C.
For `CCOC(=O)CNc1ccc(Cl)c(Cl)c1` the value was 103 to 104 °C; for `CN(C)CCCCN1CCOc2cc3ncc(C#N)c(Nc4ccc(F)c(Cl)c4)c3cc21`, 105 °C.
As for `OCCNc1c(Br)cnc2cc(C(F)(F)F)ccc12`, the figure is 140 to 141 °C; as for `CS(=O)(=O)OCN1C=NN(c2c(Cl)cc(C(F)(F)F)cc2Cl)C1`, 96 to 97 °C.
Take `CC(C)COc1ccccc1-c1ncc(C(N)=O)c(=O)[nH]1`: the melting point lay within 230 to 231 °C.
As for `O=C1NCc2c1cc1ccc3c(c1c2-c1ccc2c(c1)OCO2)OCC3`, the figure is 275 to 277 °C.
As for `OC1(c2c[nH]c(-c3ccc(F)cc3)c2-c2ccncc2)CCNCC1`, the figure is 197 to 199 °C; as for `OC[C@@H]1CC=CC[C@@H]1CO`, 33 to 35 °C; as for `CCc1nn(C2CN(C(C)C)C2)c(C(N)=O)c1N`, 150 to 156 °C.
For `CS(=O)(=O)OCCCCCc1ccc(OCc2coc(/C=C/c3ccccc3)n2)cc1` the value was 105 to 106 °C.
Turning to `Cn1c2cc(Cl)ncc2c(=O)n2nccc12`, the melting point was greater than 300 °C.
`CCC1(CC)c2cc(-c3cc4ccccc4[nH]3)ccc2-c2ccc(N(c3ccccc3)c3ccccc3)cc21`: the melting point lay in the range of 102 to 104 °C.
In the case of `Clc1ccc2sc(=Nc3ccccc3)sc2c1`, the melting point lay within 71 to 73 °C.
For `CCn1c(COC(=O)NC(C)=O)nc(C(C)C)c1Sc1cc(Cl)cc(Cl)c1` the value was 163 to 164 °C.
For `COCCOc1ccc(CCCC2OCCO2)c(Oc2ncc(C(F)(F)F)cc2Cl)c1` the value was 92 to 92.5 °C.
As for `CC1=NC(C)=C(c2ccc(Oc3ccc(S(C)=O)cc3)cc2)C(=O)C1Br` (stereo not given), the figure is 262 to 263 °C; as for `COc1ccc(C(O)CNC(C)C)s1` (stereo not given), 81 °C.
As for `O=C(O)Cc1ccc2occ(-c3ccc(C(=O)O)cc3)c2c1`, the melting point lay in the range of 278 to 281 °C.
For `O=C(O)c1ccc(OCCF)cc1` the value was 135 °C; for `Cc1cc(C=C2SCNC2=O)cc(C(C)(C)C)c1O`, 162 to 165 °C.
As for `C=CCSc1cc(C(=O)O)cc(N)c1-c1ccccc1`, the figure is 150 °C; as for `CC(C)n1c(=O)ccc2cnc(Nc3cccc([N+](=O)[O-])c3)nc21`, 202 to 203 °C.
As for `CC1Sc2nccn2C1(C)C(O)CCc1ccco1` (stereo not given), the figure is 144 to 145 °C; as for `Cc1cccc2c1cc(C(=O)NCC1CCN(CC3(O)CCOCC3)CC1)c(=O)n2C(C)C`, 222 °C.
Molecule `COc1cc(Nc2nccc(Nc3ccc(OCC(=O)O)cc3)n2)cc(OC)c1OC` had a melting point of 159 °C.
Molecule `Fc1cccc(CC[C@H]2CNCCN2)c1` yielded a melting point of 95 to 99 °C.
Regarding `Nc1nc(Cl)cnc1-c1cc(Cl)cc(Cl)c1Cl`, the melting point was 211 to 214 °C.
As for `COC(=O)c1ccccc1-n1c(CCl)nc2cc(Cl)ccc2c1=O`, the melting point is 150 to 152 °C.
On to `OC(Cn1cncn1)c1ccc(Cl)cc1Cl` (stereo not given), for which the melting point was found to be 87 °C.
For `COC(=O)CCCCCCCCC(=O)c1ccccc1`, the melting point lay within 37 to 38 °C.
In turn, `O=c1[nH]c2ccc(C(F)(F)F)cc2c(-c2cc(Cl)ccc2O)c1NCc1ccccc1` showed a melting point of 215 to 217 °C.
As for `CC(O)CN1C(=O)N(CC(C)O)C(C)(C)C1=O` (stereo not given), the figure is 65 to 67 °C; as for `Clc1ccc(Cl)c(CN2CCNc3ncc(C4=CCNCC4)cc32)c1`, 133 to 136 °C; as for `CCCCCCCCCCCCNC1=NS(=O)(=O)N=C1NCCSCc1ccc(CN(C)C)o1`, 136 to 139 °C.
`CCC(O)(CC)c1ccc(-c2cccc(COc3ccc(CO)c(CO)c3)c2)c(C)c1`: the melting point was found to be 87 °C.
For `O=c1cc(-c2ccc(O)cc2)oc2ccncc12` the value was 306 to 308 °C.
`CC1(C)CC(N(c2nc(F)nc(N(C3CC(C)(C)NC(C)(C)C3)C3CC(C)(C)NC(C)(C)C3)n2)C2CC(C)(C)NC(C)(C)C2)CC(C)(C)N1` displayed a melting point of 298 to 304 °C.
Turning to `CN1C2CCC(NC(=O)c3n[nH]c4ccccc34)C1CC2` (stereo not given), the melting point lay in the range of 222 to 224 °C.
For `FC1(F)Oc2ccc(C=Cc3nc(CNc4ccc(CCCCn5ccnn5)cc4)co3)cc2O1` the value was 102 to 104 °C; for `Cn1cc(C(=O)NCc2ccc(Cl)cc2)c(=O)c2cc(CN3CCOC[C@@H]3[C@H](O)c3ccccc3)sc21`, 129 to 134 °C.
In turn, `O=C1c2ccccc2CCC1CN1CCC2(CC1)C(=O)NCN2c1ccccc1` (stereo not given) displayed a melting point of 170 to 173 °C.
The molecule `CN(Cc1cc(-c2ccc(CC3SC(=O)NC3=O)cc2)cs1)C(=O)c1ccccc1` (stereo not given) gave a melting point of 134 °C.
As for `CC(C)c1nc(-c2ncn3c2COC(=O)c2ccccc2-3)no1`, the figure is 143 to 144 °C.
In the case of `Cc1noc(NS(=O)(=O)c2ccccc2-c2ccccc2)c1Cl`, the melting point lay in the range of 132 to 134 °C.
The molecule `Cn1cc(CN2CCC[C@H]2CO)c2ccccc21` had a melting point of 46 to 48 °C.
On to `Fc1ccc(Nc2ncnc3ccc(-c4cccs4)cc23)cc1Cl`, for which the melting point was in the range of 205 to 208 °C.
As to `COC(C)(CC(=O)NC1CCCCC1)OC`, the melting point came out at 66 °C.
The molecule `NN(CCO)c1ccc(-c2ccc(Cl)cc2)nn1` registered a melting point of 172 to 174 °C.
Molecule `c1csc(-c2cnc(COc3ccc(CCCCn4ccnc4)cc3)o2)c1` displayed a melting point of 136 to 138 °C.
In the case of `Cc1cc(SCC#Cc2ccccc2C(F)(F)F)ccc1OCC(=O)O`, the melting point lay within 95 to 97 °C.
For `Cc1c(SCc2ccco2)ccnc1CSc1ccncc1` the value was 126 to 128 °C; for `O=C1NCC(c2cccc(C(F)(F)F)c2)C1c1cn2c3c(cccc13)CCC2` (stereo not given), 82 to 85 °C.
As to `COc1cc(CCNC(=O)[C@@H](NC(=O)OC(C)(C)C)C(C)C)ccc1OC/C=C\c1ccc(Cl)cc1`, the melting point was in the range of 82 to 84 °C.
As to `CCCN(CCC)C(=O)Cn1c(-c2ccc(Br)cc2)nc2cccnc21`, the melting point lay within 153 to 155 °C.
For `OCCc1nccn1CCCCc1ccc(OCc2coc(/C=C/c3ccc(F)cc3F)n2)cc1` the value was 93 to 95 °C; for `N#Cc1csc2c1CCN(C(=O)C(F)(F)F)CC2c1ccccc1` (stereo not given), 107 °C.
For `CC(C)N1C(=O)NC(NC2CC2)NC1=O` the value was 237 to 239 °C.
For `C1=CC2=NCCN2C=C1` the value was 178 to 180 °C; for `COc1ccc(CC(=O)NC(NC(=NC#N)Nc2ccccc2C)C(C)(C)C)cc1OC` (stereo not given), 156 to 157 °C.
In the case of `ON=Cc1ccc2c(c1)ncn2-c1cccc(COCc2ccccn2)c1`, the melting point lay within 154 to 155 °C.
The molecule `Cc1ccc(Cc2cnc(NCCCN(c3ccccc3)c3ccccn3)[nH]c2=O)cn1` had a melting point of 216 to 218 °C.
`O=c1[nH]cccc1CO` returned a melting point of 203 to 205 °C.
`Cc1cccc(N(C=C(C#N)C#N)N=C(C#N)C#N)c1` returned a melting point of 157 to 159 °C.
As for `Nc1c2c(nc3ccccc13)C1CCC2CC1`, the figure is 197 to 199 °C; as for `O=C1C=CCCC=CCCC=CCCC=C1`, 30 to 37 °C.
Take `NC(=O)Cc1ccc2c(c1)CCc1ccccc1O2`: the melting point was 205 to 206 °C.
For `CC1(c2ccc3noc(-c4ccccc4)c3c2)OCCO1` the value was 69 to 71 °C; for `Cc1cc2cc(CN3CCCCCC3)cnc2cc1NC(=O)c1ccc(-c2ccc(F)cc2)cc1`, 170 to 174 °C.
In turn, `CC(=O)c1ccc(OCCCOc2cc(N)c(C)cc2Cl)c(CCC(F)(F)F)c1O` returned a melting point of 111 to 113 °C.
For `CCOC(=O)c1ccc(OCC(=O)O)cc1` the value was 129 to 130 °C.
